In this assay the test system is MC3T3 H1 osteoblasts. As to the kind of experiment: Adhesion of MC3T3 H1 osteoblasts to V4A stainless steel shaped articles coated with acrylate peptide 3. The format is cell-based, mouse. The settings on record: for maximum adhesion rates: V4A stainless steel. As to the method:
For testing the cell adhesion of osteoblasts to peptide-coated metal surfaces, V4A stainless steel shaped articles (7×7×1 mm^3) were provided with three different coating variants and in each case then coated in turn with RGD peptides. To do this, first the stainless steel shaped articles were incubated in an ultrasonic bath at 60° C. for 15 min for the purpose of cleaning, rinsed with demineralized water, incubated in acetone for 30 min, rinsed again with demineralized water and incubated at 60° C. for 24 hours for drying.
The stainless steel platelets were then coated by means of three variants:
The Kevloc® primer solution was thinly applied and incubated at room temperature for 3 min. Then the Kevloc® bond solution was likewise thinly applied and activated in a kiln at 180° C. for 20 min.
Since this coating variant directly makes available free acrylate radicals on the metal surface, it was then possible to directly covalently couple the acrylate peptide 3, types iiia, as was described in Example 3 for polymerized PMMA-bone cement.
The Siliseal® solution was thinly applied and dried at room temperature for 5 min. Then the Sililink solution was likewise thinly applied and activated in the kiln at 320° C. for 3 min.
To make available acrylate radicals on the coated metal surfaces, the pretreated stainless steel shaped articles were immersed in demineralized water heated to 75° C., adjusted to pH about 8.00 using NaOH. A 1% 3-methacryloxypropyltrimethoxysilane solution (Huls AG, Germany) was then metered in with strirring over a period of one hour until a pH of about 6.50 was achieved. The mixture was then stirred at 75° C. for one hour; the pH at this time was about 6.35.
The bonding of acrylate peptide 3, type iiia, was carried out as described in Example 3 for polymerized PMMA bone cement.
For this, the stainless steel shaped articles were immersed in demineralized water heated to 75° C., adjusted to pH about 8.00 using NaOH, and an AlCl3 solution was metered in with stirring over a period of two hours. Then a 5% sodium silicate solution was likewise metered in with stirring over two hours. In the following step, a 1% 3-methacryloxypropyltrimethoxysilane solution (Huls AG, Germany) was metered in with stirring in the course of one hour. The mixture was then stirred at 75° C. for one hour; the pH was at this time about 6.40.
After the stainless steel shaped articles had been coated with acrylate peptide 3, type iiia, by means of three different processes, the adhesion of osteoblasts of the line MC3T3 H1 was investigated. To do this, a procedure as described in Example 3 was used.

With “cyclo(RGDf[acrylic-ahx-tEG-K]) [acrylate peptide 3]”, the maximum adhesion rates entry was “about 80%” (Kevloc process), “about 80%” (Silicoater process) and “about 60%” (pigment coating). Moreover, the EC50 (all three coating variants, read-out: half-maximal cell bindings, RGD peptide concentration in the coating solution) lay within 1 to 100 nM.
